Laboratory results: paper PMC6727436, “Gummosin, a sesquiterpene coumarin from Ferula assa-foetida is preferentially cytotoxic to human breast and prostate cancer cell lines” (Avicenna Journal of Phytomedicine, 2019)
≈ marks a conversion by molar mass, not a printed value.

Experiments:
[1] = system: MCF-7 human breast adenocarcinoma cell line; assay: cells; type: cell-based; details: for IC50: Homo sapiens, MCF7, 48 h, read-out: IC50 (µg/mL)±SD/Cell line MCF-7; for IC50 / IC50 (µg/mL)±SD/Cell line MCF-7: MCF-7, 48 hr treatment, alamarBlue; for cytotoxic activity at highest dose: MCF-7, highest dose 50 µg/mL
Description: (§1) Human breast adenocarcinoma cell line (MCF-7), human prostate cancer cell line (PC3) and human normal fibroblast cell line (NIH) were obtained from Biotechnology Research Center (Mashhad, Iran) and subsequently grown in RPMI-1640 medium with 10% fetal bovine serum (Gibco, Invitrogen, Paisley, UK), penicillin (100 units/ml) and streptomycin ([…]) as antibiotics. The cell culture was done in a humidified incubator under the atmosphere of 5% CO2 at 37 °C.
(§2) To measure the cytotoxic activity of pure compounds, a non-fluorescent substrate called resazurin (alamarBlue®; BioSource Invitrogen, Paisley, UK) was used in this study. In this study, we used a method that was previously reported by Haaften et al., with some small modifications (van Haaften et al., 2011). Briefly, when the cells were in the exponential phase, 1×10^4 of the three cell lines were seeded in 96-well plates. The cells were incubated for 24 hr in order to adhere to the plastic surface of the bottom of the wells. After 24 hr, the cells were treated with 6.25, 12.5, 25 and 50 µg/mL of each compound from the stock solution of 5 mg/mL in dimethyl sulfoxide (DMSO) via serial solution prepared using RPMI-1640. The amount of DMSO in final culture media was lower than […]. Also, to rule out the effects of DMSO on cells, equal amount of DMSO was added to the untreated groups. After 48 hr, viability of the cells was measured by adding alamarBlue® reagent (10% of tissue culture volume from stock solution of 0.14 mg/mL). The absorbance of the wells was read at 600 nm using a microplate reader. Doxorubicin at concentrations of 0.1, 1 and 5 µg/mL was used as the positive control and the viability was calculated using following formula:
(§3) T=Absorbance of wells with pure compounds at 600 nm after 48 hr of incubation.
(§4) UT=Absorbance of wells with cell but without any compound at 600 nm after 48 hr of incubation.
(§5) B=Absorbance of blank (without cell and compounds) at 600 nm after 48 hr of incubation.
(§6) In this study, all the experiments were done at least in triplicate.

[2] = system: PC3 human prostate cancer cell line; assay: cells; type: cell-based; details: for IC50: Homo sapiens, 48 h, read-out: IC50 (µg/mL)±SD/Cell line PC3; for IC50 / IC50 (µg/mL)±SD/Cell line PC3: PC3, 48 hr treatment, alamarBlue; for cytotoxic activity at highest dose: PC3, highest dose 50 µg/mL
Description: as §1, §2, §3, §4, §5, §6

[3] = system: NIH human normal fibroblast cell line; assay: alamarBlue (resazurin) cytotoxicity assay, NIH normal cells; type: cell-based; details: for IC50: Homo sapiens, Fibroblast, NIH normal cells, 48 hr treatment, alamarBlue, read-out: IC50 (µg/mL)±SD/Cell line NIH
Description: as §1, §2, §3, §4, §5, §6

ovarian cancer cell line = system: ovarian cancer cell line; design: method as in Valiahdi et al., 2013; details: ref Valiahdi et al., 2013; read-out: IC50 against ovarian cancer cell line; cited from earlier work
[4] = design: method as in Iranshahi, 2018; details: cell line not stated; ref Iranshahi, 2018; cited from earlier work
cancer cell lines = system: cancer cell lines; design: method as in Kasaian, et al., 2015; details: ref Kasaian, et al., 2015; cited from earlier work

| IC50 [1] | IC50 [2] | SMILES | IC50 [3] | further results |
| --- | --- | --- | --- | --- |
| 0.28 µg/mL (≈ 0.515 µM) | 0.62 µg/mL (≈ 1.14 µM) | COc1cccc2c1C(=O)c1c(O)c3c(c(O)c1C2=O)C[C@@](O)(C(=O)CO)C[C@@H]3O[C@H]1C[C@H](N)[C@H](O)[C@H](C)O1 [Doxorubicin, reference compound] | – | – |
| > 50 µg/mL | > 50 µg/mL | C=C1CC[C@@H]2C(C)(C)[C@H](O)CC[C@@]2(C)[C@H]1COc1ccc2ccc(=O)oc2c1 [Farnesiferol A] | > 100 µg/mL | cytotoxic activity at highest dose [1]: did not show cytotoxic activity; cytotoxic activity at highest dose [2]: did not show cytotoxic activity |
| < 50 µg/mL | < 50 µg/mL | C=C1CC[C@@H](O)C(C)(C)C1CC/C(C)=C/COc1ccc2ccc(=O)oc2c1 (some centres unmarked) [Farnesiferol B] | > 100 µg/mL | – |
| < 50 µg/mL | < 50 µg/mL | C/C(=C\COc1ccc2ccc(=O)oc2c1)CC[C@@H]1C(C)(C)[C@H]2CC[C@]1(C)O2 [Farnesiferol C] | > 100 µg/mL | IC50 (µg/mL)±SD/Cell line MCF-7 [1]: 41.7 ± 8.2 µg/mL (≈ 109 µM); IC50 (µg/mL)±SD/Cell line PC3 [2]: 43.1 ± 9.5 µg/mL (≈ 113 µM) |
| < 50 µg/mL | < 50 µg/mL | C=C1CCC2C(C)(C)C(O)CCC2(C)C1COc1ccc2ccc(=O)oc2c1 (centres unmarked) [Gummosin] | > 100 µg/mL | IC50 (µg/mL)±SD/Cell line MCF-7 [1]: 32.1 ± 2.3 µg/mL (≈ 83.9 µM); IC50 (µg/mL)±SD/Cell line PC3 [2]: 30.0 ± 4.7 µg/mL (≈ 78.4 µM); toxicity in normal cell line ([3]; NIH normal cell line, at 50 µg/mL): did not cause any toxicity |
| > 50 µg/mL | > 50 µg/mL | CC1(C)CC[C@H]2C(C)(C)[C@H](O)CC[C@]2(C)[C@H]1COc1ccc2ccc(=O)oc2c1 [Samarcandin] | > 100 µg/mL | cytotoxic activity at highest dose [1]: unable to induce toxicity; cytotoxic activity at highest dose [2]: unable to induce toxicity |
| > 50 µg/mL | > 50 µg/mL | CC(C)=CCC/C(C)=C/CC/C(C)=C/COc1ccc2ccc(=O)oc2c1 [Umbelliprenin] | > 100 µg/mL | – |
| – | – | CC1=CCC2C(C)(C)C(=O)CCC2(C)C1COc1ccc2ccc(=O)oc2c1 (centres unmarked) [conferone] | – | IC50 (ovarian cancer cell line): 7.79 µM |
| – | – | CC(C)=CCC/C(C)=C/CC/C(C)=C/Cc1c(O)c2ccccc2oc1=O [ferulenol] | – | IC50 (cytotoxic activity) [4]: 1 mg/L (≈ 2.73 µM) |
| – | – | CC1=CC[C@@H]2C(C)(C)[C@H](O)CC[C@@]2(C)[C@@H]1COc1ccc2ccc(=O)oc2c1 [feselol, Feselol] | – | activity against cancer cell lines (cancer cell lines): inactive |
